From ChEMBL document CHEMBL1131863, “Synthesis and antibacterial activity of HMR 3647 a new ketolide highly potent against erythromycin-resistant and susceptible pathogens” (1999)
≈ marks a conversion by molar mass, not a printed value.

Columns and labels:
Type in all cases: functional
[1] = test system: Streptococcus pneumoniae; test: The compound was tested in vitro for antibacterial activity against erythromycin susceptible Streptococcus pneumoniae 032UC1.
[2] = test system: Streptococcus pyogenes; test: The compound was tested in vitro for antibacterial activity against erythromycin susceptible Streptococcus pyogenes 02A1UC1.
[3] = test system: Streptococcus pneumoniae; test: The compound was tested in vitro for antibacterial activity against inducibly erythromycin resistant Streptococcus pneumoniae 030J5i.
[4] = test system: Streptococcus pneumoniae; test: The compound was tested in vitro for antibacterial activity against constitutively erythromycin resistant Streptococcus pneumoniae 030CR18c.
[5] = test system: Streptococcus pneumoniae; test: The compound was tested in vitro for antibacterial activity against constitutively erythromycin resistant Streptococcus pneumoniae 030SJ1.
[6] = test system: Streptococcus pneumoniae; test: The compound was tested in vitro for antibacterial activity against constitutively erythromycin resistant Streptococcus pneumoniae 030PW23c.
[7] = test system: Haemophilus influenzae; test: The compound was tested in vitro for antibacterial activity against Haemophilus influenza 351HT3.
[8] = test system: Staphylococcus aureus; test: The compound was tested in vitro for antibacterial activity against erythromycin susceptible Staphylococcus aureus 011UC4.
[9] = test system: Staphylococcus aureus; test: The compound was tested in vitro for antibacterial activity against constitutively erythromycin resistant Staphylococcus aureus 011CB20.
[10] = test system: Escherichia coli; test: The compound was tested in vitro for antibacterial activity against Escherichia coli 250 UCS.
[11] = test system: Staphylococcus aureus; test: The compound was tested in vitro for antibacterial activity against inducibly erythromycin resistant Staphylococcus aureus 011GO25i.
[12] = test system: Streptococcus pneumoniae; test: The compound was tested in vitro for antibacterial activity against inducibly erythromycin resistant Streptococcus pneumoniae 030J5i
[13] = test system: Escherichia coli; test: The compound was tested in vitro for antibacterial activity against Escherichia coli 250 UCS
[14] = test system: Streptococcus pneumoniae; test: The compound was tested in vitro for antibacterial activity against constitutively erythromycin resistant Streptococcus pneumoniae 030CR18c
[15] = test system: Haemophilus influenzae; test: The compound was tested in vitro for antibacterial activity against Haemophilus influenza 351HT3
[16] = test system: Staphylococcus aureus; test: The compound was tested in vitro for antibacterial activity against constitutively erythromycin resistant Staphylococcus aureus 011CB20
[17] = test system: Streptococcus pyogenes; test: The compound was tested in vitro for antibacterial activity against erythromycin susceptible Streptococcus pyogenes 02A1UC1
[18] = test system: Streptococcus pneumoniae; test: The compound was tested in vitro for antibacterial activity against constitutively erythromycin resistant Streptococcus pneumoniae 030PW23c
[19] = test system: Staphylococcus aureus; test: The compound was tested in vitro for antibacterial activity against erythromycin susceptible Staphylococcus aureus 011UC4
[20] = test system: Streptococcus pneumoniae; test: The compound was tested in vitro for antibacterial activity against erythromycin susceptible Streptococcus pneumoniae 032UC1
[21] = test system: Staphylococcus aureus; test: The compound was tested in vitro for antibacterial activity against inducibly erythromycin resistant Staphylococcus aureus 011GO25i
[22] = test system: Streptococcus pneumoniae; test: The compound was tested in vitro for antibacterial activity against constitutively erythromycin resistant Streptococcus pneumoniae 030SJ1
[23] = test system: Mus musculus; test: The compound was tested in vivo for antibacterial activity against constitutively erythromycin resistant Streptococcus pneumoniae 030MV2 in mice after oral administration
[24] = test system: Mus musculus; test: The compound was tested in vivo for antibacterial activity against constitutively erythromycin resistant Streptococcus pneumoniae 030Cr29 in mice after oral administration
[25] = test system: Mus musculus; test: The compound was tested in vivo for antibacterial activity against inducibly erythromycin resistant Streptococcus pneumoniae 030RO1 in mice after oral administration
[26] = test system: Mus musculus; test: The compound was tested in vivo for antibacterial activity against inducibly erythromycin resistant Staphylococcus aureus 011GO3 in mice after oral administration
[27] = test system: Mus musculus; test: The compound was tested in vivo for antibacterial activity against constitutively erythromycin resistant Streptococcus pneumoniae 030SJ1 in mice after oral administration
[28] = test system: Mus musculus; test: The compound was tested in vivo for antibacterial activity against erythromycin susceptible Staphylococcus aureus 011UC4 in mice after oral administration
[29] = test system: Mus musculus; test: The compound was tested in vivo for antibacterial activity against erythromycin susceptible Streptococcus pneumoniae 032UC1 in mice after oral administration
[30] = test system: Mus musculus; test: The compound was tested in vivo for antibacterial activity against AmpR beta(+) Haemophilus influenza 351RD7 in mice after oral administration
[31] = test system: Mus musculus; test: The compound was tested in vivo for antibacterial activity against erythromycin susceptible Streptococcus pyogenes 02A1UC1 in mice after oral administration
[32] = test system: Mus musculus; test: The compound was tested in vivo for antibacterial activity against AmpR beta(-) Haemophilus influenza 351TO19 in mice after oral administration
[33] = test system: Mus musculus; test: The compound was tested in vivo for antibacterial activity against Haemophilus influenza 351GR1 in mice after oral administration
[34] = test system: Mus musculus; test: The compound was tested in vivo for antibacterial activity against constitutively erythromycin resistant Streptococcus pneumoniae 030SJ6 in mice after oral administration

CC[C@H]1OC(=O)[C@H](C)C(=O)[C@H](C)[C@@H](O[C@@H]2O[C@H](C)C[C@H](N(C)C)[C@H]2O)[C@](C)(OC)C[C@@H](C)C(=O)[C@H](C)[C@H]2N(CCCCn3nnnc3-c3ccccc3)C(=O)O[C@]12C
MIC [1]: 0.02 µg/mL (≈ 0.0246 µM) | MIC [2]: 0.02 µg/mL (≈ 0.0246 µM) | MIC [3]: 0.02 µg/mL (≈ 0.0246 µM) | MIC [4]: 1.2 µg/mL (≈ 1.48 µM) | MIC [5]: 0.3 µg/mL (≈ 0.369 µM) | MIC [6]: 0.6 µg/mL (≈ 0.738 µM) | MIC [7]: 1.2 µg/mL (≈ 1.48 µM) | MIC [8]: 0.02 µg/mL (≈ 0.0246 µM) | MIC [9]: 40 µg/mL (≈ 49.2 µM) | MIC [10]: 20 µg/mL (≈ 24.6 µM) | MIC [11]: 0.6 µg/mL (≈ 0.738 µM)

CC[C@H]1OC(=O)[C@H](C)C(=O)[C@H](C)[C@@H](O[C@@H]2O[C@H](C)C[C@H](N(C)C)[C@H]2O)[C@](C)(OC)C[C@@H](C)C(=O)[C@H](C)[C@H]2N(CCCCc3ccnc4ccccc34)C(=O)O[C@]12C
MIC [12]: 0.02 µg/mL (≈ 0.0251 µM) | MIC [13]: 40 µg/mL (≈ 50.3 µM) | MIC [14]: 1.2 µg/mL (≈ 1.51 µM) | MIC [15]: 1.2 µg/mL (≈ 1.51 µM) | MIC [16]: 40 µg/mL (≈ 50.3 µM) | MIC [17]: 0.02 µg/mL (≈ 0.0251 µM) | MIC [18]: 1.2 µg/mL (≈ 1.51 µM) | MIC [19]: 0.04 µg/mL (≈ 0.0503 µM) | MIC [20]: 0.02 µg/mL (≈ 0.0251 µM) | MIC [21]: 0.08 µg/mL (≈ 0.101 µM) | MIC [22]: 1.2 µg/mL (≈ 1.51 µM)

CC[C@H]1OC(=O)[C@H](C)C(=O)[C@H](C)[C@@H](O[C@@H]2O[C@H](C)C[C@H](N(C)C)[C@H]2O)[C@](C)(OC)C[C@@H](C)C(=O)[C@H](C)[C@H]2N(CCCCn3cnc(-c4ccccc4)n3)C(=O)O[C@]12C
MIC [1]: 0.04 µg/mL (≈ 0.0493 µM) | MIC [2]: 0.02 µg/mL (≈ 0.0246 µM) | MIC [3]: 0.3 µg/mL (≈ 0.369 µM) | MIC [4]: 1.2 µg/mL (≈ 1.48 µM) | MIC [5]: 0.6 µg/mL (≈ 0.739 µM) | MIC [6]: 1.2 µg/mL (≈ 1.48 µM) | MIC [7]: 1.2 µg/mL (≈ 1.48 µM) | MIC [8]: 0.02 µg/mL (≈ 0.0246 µM) | MIC [9]: 40 µg/mL (≈ 49.3 µM) | MIC [10]: 40 µg/mL (≈ 49.3 µM) | MIC [11]: 0.15 µg/mL (≈ 0.185 µM)

CC[C@H]1OC(=O)[C@H](C)C(=O)[C@H](C)[C@@H](O[C@@H]2O[C@H](C)C[C@H](N(C)C)[C@H]2OC(C)=O)[C@](C)(OC)C[C@@H](C)C(=O)/C(C)=C/[C@]1(C)OC(=O)n1ccnc1
MIC [12]: 0.08 µg/mL (≈ 0.113 µM) | MIC [13]: 20 µg/mL (≈ 28.3 µM) | MIC [14]: 10 µg/mL (≈ 14.2 µM) | MIC [15]: 2.5 µg/mL (≈ 3.54 µM) | MIC [17]: 0.02 µg/mL (≈ 0.0283 µM) | MIC [18]: 10 µg/mL (≈ 14.2 µM) | MIC [19]: 0.08 µg/mL (≈ 0.113 µM) | MIC [20]: 0.02 µg/mL (≈ 0.0283 µM) | MIC [21]: 0.15 µg/mL (≈ 0.213 µM) | MIC [22]: 10 µg/mL (≈ 14.2 µM) | MIC [9]: 40 µg/mL (≈ 56.7 µM)

CC[C@H]1OC(=O)[C@H](C)C(=O)[C@H](C)[C@@H](O[C@@H]2O[C@H](C)C[C@H](N(C)C)[C@H]2O)[C@](C)(OC)C[C@@H](C)C(=O)[C@H](C)[C@H]2N(CCCCn3ccc4ccccc43)C(=O)O[C@]12C
MIC [1]: 0.02 µg/mL (≈ 0.0255 µM) | MIC [2]: 0.02 µg/mL (≈ 0.0255 µM) | MIC [3]: 0.08 µg/mL (≈ 0.102 µM) | MIC [4]: 2.5 µg/mL (≈ 3.19 µM) | MIC [5]: 2.5 µg/mL (≈ 3.19 µM) | MIC [6]: 2.5 µg/mL (≈ 3.19 µM) | MIC [7]: 0.6 µg/mL (≈ 0.765 µM) | MIC [8]: 0.04 µg/mL (≈ 0.051 µM) | MIC [9]: 40 µg/mL (≈ 51 µM) | MIC [10]: 10 µg/mL (≈ 12.8 µM) | MIC [11]: 0.08 µg/mL (≈ 0.102 µM)

CC[C@H]1OC(=O)[C@H](C)C(=O)[C@H](C)[C@@H](O[C@@H]2O[C@H](C)C[C@H](N(C)C)[C@H]2O)[C@](C)(OC)C[C@@H](C)C(=O)[C@H](C)[C@H]2N(CCCCn3cnc(-c4ccccc4)c3)C(=O)O[C@]12C
MIC [1]: 0.02 µg/mL (≈ 0.0247 µM) | MIC [2]: 0.02 µg/mL (≈ 0.0247 µM) | MIC [3]: 2.5 µg/mL (≈ 3.08 µM) | MIC [4]: 1.2 µg/mL (≈ 1.48 µM) | MIC [5]: 2.5 µg/mL (≈ 3.08 µM) | MIC [6]: 20 µg/mL (≈ 24.7 µM) | MIC [7]: 2.5 µg/mL (≈ 3.08 µM) | MIC [8]: 0.08 µg/mL (≈ 0.0986 µM) | MIC [9]: 40 µg/mL (≈ 49.3 µM) | MIC [10]: 40 µg/mL (≈ 49.3 µM) | MIC [11]: 0.3 µg/mL (≈ 0.37 µM)

CC[C@H]1OC(=O)[C@H](C)[C@@H](O[C@H]2C[C@@](C)(OC)[C@@H](O)[C@H](C)O2)[C@H](C)[C@@H](O[C@@H]2O[C@H](C)C[C@H](N(C)C)[C@H]2O)[C@](C)(O)C[C@@H](C)CN(C)[C@H](C)[C@@H](O)[C@]1(C)O [AZITHROMYCIN]
MIC [12]: 40 µg/mL (≈ 53.4 µM) | MIC [13]: 20 µg/mL (≈ 26.7 µM) | MIC [14]: 40 µg/mL (≈ 53.4 µM) | ED50 [23]: > 50 mg/kg | ED50 [24]: > 50 mg/kg | ED50 [25]: > 50 mg/kg | MIC [15]: 1.2 µg/mL (≈ 1.6 µM) | MIC [16]: 40 µg/mL (≈ 53.4 µM) | ED50 [26]: > 100 mg/kg | MIC [17]: 0.6 µg/mL (≈ 0.801 µM) | MIC [18]: 40 µg/mL (≈ 53.4 µM) | MIC [19]: 0.3 µg/mL (≈ 0.401 µM) | ED50 [27]: > 50 mg/kg | MIC [20]: 0.15 µg/mL (≈ 0.2 µM) | ED50 [28]: 30 mg/kg | ED50 [29]: 6 mg/kg | ED50 [30]: 94 mg/kg | ED50 [31]: 16 mg/kg | ED50 [32]: 145 mg/kg | MIC [21]: 40 µg/mL (≈ 53.4 µM) | ED50 [33]: 56 mg/kg | MIC [22]: 40 µg/mL (≈ 53.4 µM)

CC[C@H]1OC(=O)[C@H](C)C(=O)[C@H](C)[C@@H](O[C@@H]2O[C@H](C)C[C@H](N(C)C)[C@H]2O)[C@](C)(OC)C[C@@H](C)C(=O)[C@H](C)[C@H]2N(CCCCn3cnc(-c4cccnc4)c3)C(=O)O[C@]12C [TELITHROMYCIN]
ED50 [23]: 4 mg/kg | ED50 [24]: 4.5 mg/kg | ED50 [25]: 4 mg/kg | ED50 [27]: 15 mg/kg | ED50 [28]: 10 mg/kg | MIC [1]: 0.02 µg/mL (≈ 0.0246 µM) | ED50 [29]: 1 mg/kg | ED50 [30]: 57 mg/kg | MIC [2]: 0.02 µg/mL (≈ 0.0246 µM) | ED50 [31]: 16 mg/kg | ED50 [32]: 40 mg/kg | MIC [3]: 0.02 µg/mL (≈ 0.0246 µM) | MIC [4]: 0.15 µg/mL (≈ 0.185 µM) | MIC [5]: 0.08 µg/mL (≈ 0.0985 µM) | MIC [6]: 0.08 µg/mL (≈ 0.0985 µM) | ED50 [34]: 6.5 mg/kg | MIC [7]: 1.2 µg/mL (≈ 1.48 µM) | ED50 [33]: 68 mg/kg | MIC [8]: 0.04 µg/mL (≈ 0.0493 µM) | MIC [9]: 40 µg/mL (≈ 49.3 µM) | MIC [10]: 10 µg/mL (≈ 12.3 µM) | MIC [11]: 0.08 µg/mL (≈ 0.0985 µM)
